Values quoted from earlier work as cited in patent US8623415B2, “Method for producing biologically ingestible microparticles, biologically ingestible microparticles, and dispersion and pharmaceutical composition containing the same” (M. Technique Co., Ltd., priority 2007, dated 2014).
Where two headings read alike, the source gives them in different places.

Key:
[1] = dissolved in an aqueous solution of pH 6 or higher

| SMILES | biological availability (BA) (commercial product (average particle diameter 10 μm) administered to a dog as a suspension) [%] | biological availability (BA) (nano-suspension, average particle diameter 169 nm, dog) [%] | stability in aqueous solution [1] |
| --- | --- | --- | --- |
| C#C[C@]1(O)CC[C@H]2[C@@H]3CCC4=Cc5oncc5C[C@]4(C)[C@H]3CC[C@@]21C [danazol, 17-α-pregno-2,4-diene-20-ino-[2,3-d]-isoxazol-17-ol (danazol)] | 5.1 | 82.3 | – |
| O=C(O)c1cc(O)c2c3nc4ccccc4oc-3cc(=O)c2n1 [pirenoxine] | – | – | hydrolyzed |
